Test results as given in patent US6489469B1, “Method for storing or transporting erythritol solution” (Nikken Chemicals Co., Ltd., priority 1999, dated 2002).

System: Bacillus stearothermophilus IFO 12550
Assay: Viable Count of Bacillus stearothermophilus IFO 12550 in Erythritol Solution (heat resistant bacteria)
Type: cell-based
Method: Erythritol solutions of respective concentrations in the range of from 30 to 70% were prepared. To these was inoculated Bacillus stearothermophilus IFO 12550 as a heat resistant bacterium in a population (concentration) of 10,000 cells/mL or more.
After the inoculation, the solutions were stored at 50, 60 or 75° C., respectively, for 56 days and the number of viable cell was determined daily. The determination of the number of viable cell was performed by in the same manner as in Example 1.

OC[C@@H](O)[C@@H](O)CO [Erythritol Solution, erythritol] was tested, and the “The Number of Viable Cell” value (50° C., 40% w/w, Day 0) was 10000 or more cells/mL, the “The Number of Viable Cell” value (50° C., 40% w/w, Day 3) was 40 cells/mL and the “The Number of Viable Cell” value (50° C., 40% w/w, Day 7) was 50 cells/mL. For the same compound, the “The Number of Viable Cell” value (50° C., 40% w/w, Day 14) was 50 cells/mL, the “The Number of Viable Cell” value (50° C., 40% w/w, Day 28) was 50 cells/mL and the “The Number of Viable Cell” value (50° C., 40% w/w, Day 56) was 60 cells/mL. For the same compound, the “The Number of Viable Cell” value (50° C., 50% w/w, Day 0) was 10000 or more cells/mL, the “The Number of Viable Cell” value (50° C., 50% w/w, Day 3) was 100 cells/mL and the “The Number of Viable Cell” value (50° C., 50% w/w, Day 7) was 100 cells/mL. For the same compound, the “The Number of Viable Cell” value (50° C., 50% w/w, Day 14) was 50 cells/mL, the “The Number of Viable Cell” value (50° C., 50% w/w, Day 28) was 70 cells/mL and the “The Number of Viable Cell” value (50° C., 50% w/w, Day 56) was 120 cells/mL. For the same compound, the “The Number of Viable Cell” value (60° C., 30% w/w, Day 0) was 10000 or more cells/mL, the “The Number of Viable Cell” value (60° C., 30% w/w, Day 3) was 90 cells/mL and the “The Number of Viable Cell” value (60° C., 30% w/w, Day 7) was 60 cells/mL. The “The Number of Viable Cell” value (60° C., 30% w/w, Day 14) was 90 cells/mL, the “The Number of Viable Cell” value (60° C., 30% w/w, Day 28) was 300 cells/mL and the “The Number of Viable Cell” value (60° C., 30% w/w, Day 56) was 0 cells/mL. For the same compound, the “The Number of Viable Cell” value (60° C., 40% w/w, Day 0) was 10000 or more cells/mL, the “The Number of Viable Cell” value (60° C., 40% w/w, Day 3) was 60 cells/mL and the “The Number of Viable Cell” value (60° C., 40% w/w, Day 7) was 70 cells/mL. The “The Number of Viable Cell” value (60° C., 40% w/w, Day 14) was 200 cells/mL, the “The Number of Viable Cell” value (60° C., 40% w/w, Day 28) was 320 cells/mL and the “The Number of Viable Cell” value (60° C., 40% w/w, Day 56) was 0 cells/mL. For the same compound, the “The Number of Viable Cell” value (60° C., 50% w/w, Day 0) was 10000 or more cells/mL, the “The Number of Viable Cell” value (60° C., 50% w/w, Day 3) was 100 cells/mL and the “The Number of Viable Cell” value (60° C., 50% w/w, Day 7) was 150 cells/mL. The “The Number of Viable Cell” value (60° C., 50% w/w, Day 14) was 200 cells/mL, the “The Number of Viable Cell” value (60° C., 50% w/w, Day 28) was 330 cells/mL and the “The Number of Viable Cell” value (60° C., 50% w/w, Day 56) was 0 cells/mL. The “The Number of Viable Cell” value (60° C., 60% w/w, Day 0) was 10000 or more cells/mL, the “The Number of Viable Cell” value (60° C., 60% w/w, Day 3) was 130 cells/mL and the “The Number of Viable Cell” value (60° C., 60% w/w, Day 7) was 100 cells/mL. The “The Number of Viable Cell” value (60° C., 60% w/w, Day 14) was 150 cells/mL, the “The Number of Viable Cell” value (60° C., 60% w/w, Day 28) was 120 cells/mL and the “The Number of Viable Cell” value (60° C., 60% w/w, Day 56) was 0 cells/mL. For the same compound, the “time after which all the cells died” value (75° C.) was 14 days, the “The Number of Viable Cell” value (75° C., 30% w/w, Day 0) was 10000 or more cells/mL and the “The Number of Viable Cell” value (75° C., 30% w/w, Day 3) was 350 cells/mL. For the same compound, the “The Number of Viable Cell” value (75° C., 30% w/w, Day 7) was 340 cells/mL, the “The Number of Viable Cell” value (75° C., 30% w/w, Day 14) was 0 cells/mL and the “The Number of Viable Cell” value (75° C., 30% w/w, Day 28) was 0 cells/mL. For the same compound, the “The Number of Viable Cell” value (75° C., 30% w/w, Day 56) was 0 cells/mL, the “The Number of Viable Cell” value (75° C., 40% w/w, Day 0) was 10000 or more cells/mL and the “The Number of Viable Cell” value (75° C., 40% w/w, Day 3) was 330 cells/mL. For the same compound, the “The Number of Viable Cell” value (75° C., 40% w/w, Day 7) was 490 cells/mL, the “The Number of Viable Cell” value (75° C., 40% w/w, Day 14) was 0 cells/mL and the “The Number of Viable Cell” value (75° C., 40% w/w, Day 28) was 0 cells/mL. For the same compound, the “The Number of Viable Cell” value (75° C., 40% w/w, Day 56) was 0 cells/mL, the “The Number of Viable Cell” value (75° C., 50% w/w, Day 0) was 10000 or more cells/mL and the “The Number of Viable Cell” value (75° C., 50% w/w, Day 3) was 220 cells/mL. For the same compound, the “The Number of Viable Cell” value (75° C., 50% w/w, Day 7) was 590 cells/mL, the “The Number of Viable Cell” value (75° C., 50% w/w, Day 14) was 0 cells/mL and the “The Number of Viable Cell” value (75° C., 50% w/w, Day 28) was 0 cells/mL. For the same compound, the “The Number of Viable Cell” value (75° C., 50% w/w, Day 56) was 0 cells/mL, the “The Number of Viable Cell” value (75° C., 60% w/w, Day 0) was 10000 or more cells/mL and the “The Number of Viable Cell” value (75° C., 60% w/w, Day 3) was 170 cells/mL. The “The Number of Viable Cell” value (75° C., 60% w/w, Day 7) was 480 cells/mL, the “The Number of Viable Cell” value (75° C., 60% w/w, Day 14) was 0 cells/mL and the “The Number of Viable Cell” value (75° C., 60% w/w, Day 28) was 0 cells/mL. The “The Number of Viable Cell” value (75° C., 60% w/w, Day 56) was 0 cells/mL, the “The Number of Viable Cell” value (75° C., 70% w/w, Day 0) was 10000 or more cells/mL and the “The Number of Viable Cell” value (75° C., 70% w/w, Day 3) was 140 cells/mL. The “The Number of Viable Cell” value (75° C., 70% w/w, Day 7) was 210 cells/mL, the “The Number of Viable Cell” value (75° C., 70% w/w, Day 14) was 0 cells/mL and the “The Number of Viable Cell” value (75° C., 70% w/w, Day 28) was 0 cells/mL. For the same compound, the “The Number of Viable Cell” value (75° C., 70% w/w, Day 56) was 0 cells/mL and the “growth of the bacteria” value (all the concentrations, temperature of 50° C. or more) was “inhibited”.
